In US4870097A, “Pharmaceutical use of derivatives of tryptophan” (priority 1984, dated 1989):

System: analgesic activity of DALA
Test: Tail Flick test: increase in the analgesic activity of DALA (i.c.v.)
Type: in vivo, rats
Set-up: analgesic activity (Tail Flick), 10' / analgesic activity (Tail Flick), 20' / analgesic activity (Tail Flick), 30' / analgesic activity (Tail Flick), 45' / analgesic activity (Tail Flick), 60' / analgesic activity (Tail Flick), AVERAGE: scale not given here
Conditions: for analgesic activity (Tail Flick), AVERAGE: average 10'-60'
Experimental: In order to check one of the possible mechanisms for the action of the compounds of the invention, that is, their possible inhibition of the enzymatic degradation of endogenous enkephalins, the following experiment was carried out:
A cannula was implanted in the right lateral ventricle of male rats having a weight of 150-200 g (groups of five animals were used) in order to allow the intracerebroventricular (i.c.v.) administration of drugs according to the method of Noble et al (Life Science 6, (1970) 281-291).
The animals were subsequently treated (i.c.v.) with 3 μg of D-ala-methionine-enkephalinamide (DALA) immediately after an injection (i.c.v.) of the compounds under study at the doses given in Table 4. Analgesia was tested for by the Tail Flick method already mentioned, at the times

Row | Structure (SMILES) | analgesic activity (Tail Flick), 10' (10(D) + 0.001 mg/kg (ICV)) | analgesic activity (Tail Flick), 20' (10(D) + 0.001 mg/kg (ICV)) | analgesic activity (Tail Flick), 30' (10(D) + 0.001 mg/kg (ICV)) | analgesic activity (Tail Flick), 45' (10(D) + 0.001 mg/kg (ICV)) | analgesic activity (Tail Flick), 60' (10(D) + 0.001 mg/kg (ICV)) | analgesic activity (Tail Flick), AVERAGE (10(D) + 0.001 mg/kg (ICV)) | analgesic activity (Tail Flick), 10' (10(D) + 0.01 mg/kg (ICV)) | analgesic activity (Tail Flick), 20' (10(D) + 0.01 mg/kg (ICV)) | analgesic activity (Tail Flick), 30' (10(D) + 0.01 mg/kg (ICV)) | analgesic activity (Tail Flick), 45' (10(D) + 0.01 mg/kg (ICV)) | analgesic activity (Tail Flick), 60' (10(D) + 0.01 mg/kg (ICV)) | analgesic activity (Tail Flick), AVERAGE (10(D) + 0.01 mg/kg (ICV))
1 | CCCCCCc1ccc(C(=O)N[C@@H](Cc2c[nH]c3ccccc23)C(=O)O)cc1 [Compound 26] | 62.44 | 73.94 | 67.94 | 40.38 | 34.06 | 55.75 ± 7.84 | 80.54 | 82.66 | 70.42 | 45.9 | 68.9 | 69.68 ± 6.53
2 | O=C(N[C@@H](Cc1c[nH]c2ccccc12)C(=O)O)OC(c1ccccc1)c1ccccc1 [Compound 33] | 64.12 | 77.56 | 72.7 | 45.76 | 57.38 | 63.50 ± 5.63 | 81.48 | 100.00 | 80.22 | 59.24 | 55.88 | 75.36 ± 8.08
